System: neurons that have low expression of ATG7
Settings: pretreatment of neurons with lentiviral shRNA knock-down of ATG7; neurotoxin MPP+
Excerpt: A lentiviral shRNA was used to knock-down the expression of ATG7, a component of the autophagy system.

Which “prevention of MPP+ induced cellular damage” value does the source give for CN1CCCC1c1cccnc1 (stereo not shown) [nicotine] here?
Its value is “prevent MPP+ induced cellular damage”.

From US10182994B2, “Nanoparticulate complex of nicotine and cerium oxide and use thereof” (priority 2014, dated 2019)
